Test results as given in US20070275984A1, “Novel Thieno-Pyridine and Thieno-Pyrimidine Derivatives and Their Use as Positive Allosteric Modulators of Mglur2-Receptors” (JANSSEN PHARMACEUTICA N.V., priority 2004, published 2007).

melting point [°C]	Structure (SMILES)
141	CCc1cc2c(NC(C)c3ccccc3)ncnc2s1 (centres unmarked)
62	CCc1ccc(CCNc2nc(C)nc3sc(C)cc23)cc1 [Compound 20, N-(4-ethylphenethyl)-2,6-dimethylthieno[2,3-d]pyrimidin-4-amine]
117.2	Cc1nc(NCCc2ccc(F)cc2)c2cc(C)sc2n1 [Compound 41, N-(4-fluorophenethyl)-2,6-dimethylthieno[2,3-d]pyrimidin-4-amine]
181	CCCc1cc2c(NCCc3ccc(OCc4nnn[nH]4)cc3)nc(OC)nc2s1 [Compound 88, N-(4-((1H-tetrazol-5-yl)methoxy)phenethyl)-2-methoxy-6-propylthieno[2,3-d]pyrimidin-4-amine]
94	Cc1nc(NCC(C)c2ccccc2)c2cc(C)sc2n1 (centres unmarked) [Compound 52, 2,6-dimethyl-N-(2-phenylpropyl)thieno[2,3-d]pyrimidin-4-amine]
108	Cc1nc(NCCCCc2ccccc2)c2cc(C)sc2n1 [Compound 54, 2,6-dimethyl-N-(4-phenylbutyl)thieno[2,3-d]pyrimidin-4-amine]
83.5	CCc1nc(NCCc2cccc(OC)c2)c2cc(C)sc2n1 [Compound 26, N-(3-methoxyphenethyl)-2-ethyl-6-methylthieno[2,3-d]pyrimidin-4-amine]
102.5 to 103.7	Cc1nc(NCCc2cccs2)c2cc(C)sc2n1 [Compound 50, 2,6-dimethyl-N-(2-(thiophen-2-yl)ethyl)thieno[2,3-d]pyrimidin-4-amine]
102	CCCc1cc2c(NCCc3ccc(OC)cc3)ncnc2s1 [Compound 85, N-(4-methoxyphenethyl)-6-propylthieno[2,3-d]pyrimidin-4-amine]
135	CCCc1cc2c(NCCc3ccc(O)cc3)nc(Cl)nc2s1 [Compound 84, 4-(2-(2-chloro-6-propylthieno[2,3-d]pyrimidin-4-ylamino)ethyl)phenol]
133	CCc1cc2c(NCCc3ccc(OC)cc3)ncnc2s1 [Compound 70, N-(4-methoxyphenethyl)-6-ethylthieno[2,3-d]pyrimidin-4-amine]
111	Cc1nc(NCCc2ccccc2)c2ccsc2n1 [Compound 1, 2-methyl-N-phenethylthieno[2,3-d]pyrimidin-4-amine]
106	Cc1nc(NCCc2ccccc2)c2cc(C)sc2n1 [Compound 13, 2,6-dimethyl-N-phenethylthieno[2,3-d]pyrimidin-4-amine]
157	CN(C)C(=O)c1cc2c(NCCc3ccccc3)ncnc2s1 [Compound 62, N,N-dimethyl-4-(phenethylamino)thieno[2,3-d]pyrimidine-6-carboxamide]
118	CCCc1cc2c(NCc3cccc(OC)c3)ncnc2s1 [Compound 77, N-(3-methoxybenzyl)-6-propylthieno[2,3-d]pyrimidin-4-amine]
134	COc1ccccc1CCNc1nc(C)nc2sc(C)cc12 [Compound 24, N-(2-methoxyphenethyl)-2,6-dimethylthieno[2,3-d]pyrimidin-4-amine]
117	Cc1nc(NCC(O)c2ccccc2)c2cc(C)sc2n1 (centres unmarked) [Compound 53, 2-(2,6-dimethylthieno[2,3-d]pyrimidin-4-ylamino)-1-phenylethanol]
89	CCc1nc(NCCc2ccccc2)c2ccsc2n1 [Compound 2, 2-ethyl-N-phenethylthieno[2,3-d]pyrimidin-4-amine]
102	CCc1cc2c(NCCc3ccc(OC)cc3)nc(C)nc2s1 [Compound 71, N-(4-methoxyphenethyl)-6-ethyl-2-methylthieno[2,3-d]pyrimidin-4-amine]
95	CCCCc1cc2c(NCCc3ccccc3)ncnc2s1 [Compound 94, 6-butyl-N-phenethylthieno[2,3-d]pyrimidin-4-amine]
119	Cc1cc2c(NCCc3ccccc3)nc(Cl)nc2s1 [Compound 14, 2-chloro-6-methyl-N-phenethylthieno[2,3-d]pyrimidin-4-amine]
82	CCc1nc(NCCc2ccc(OC)cc2)c2cc(C)sc2n1 [Compound 29, N-(4-methoxyphenethyl)-2-ethyl-6-methylthieno[2,3-d]pyrimidin-4-amine]
129	Cc1nc(NCCc2ccc(Cl)cc2)c2cc(C)sc2n1 [Compound 38, N-(4-chlorophenethyl)-2,6-dimethylthieno[2,3-d]pyrimidin-4-amine]
65	COc1cccc(CNc2ncnc3sc(C(C)C)cc23)c1 [Compound 91, N-(3-methoxybenzyl)-6-isopropylthieno[2,3-d]pyrimidin-4-amine]
78	CCc1cc2c(NCCc3ccc(OC)c(OC)c3)nc(C)nc2s1 [Compound 73, N-(3,4-dimethoxyphenethyl)-6-ethyl-2-methylthieno[2,3-d]pyrimidin-4-amine]
142	Cc1cc2c(NCCc3ccccc3)nc(N(C)C)nc2s1 [Compound 16, N2,N2,6-trimethyl-N4-phenethylthieno[2,3-d]pyrimidine-2,4-diamine]
117.5	CC(C)c1cc2c(NCCc3ccccc3)ncnc2s1 [Compound 92, 6-isopropyl-N-phenethylthieno[2,3-d]pyrimidin-4-amine]
105	Cc1nc(N2CCc3ccccc3C2)c2cc(C)sc2n1 [Compound 4, 2-(2,6-dimethylthieno[2,3-d]pyrimidin-4-yl)-1,2,3,4-tetrahydroisoquinoline]
124	CCc1cc2c(NCCc3ccc(OC)c(OC)c3)ncnc2s1 [Compound 72, N-(3,4-dimethoxyphenethyl)-6-ethylthieno[2,3-d]pyrimidin-4-amine]
